In patent publication US4405713A, “Process for the preparation of optically active anthracycline glycosides A and B” (priority 1981, dated 1983):
In brackets after ≈: the same amount, converted by molar mass. Where two headings read alike, the source gives them in different places.

Assays:
[1] = system: Proteus vulgaris IAM 1025; assay: in vitro minimum inhibitory concentration (MIC), agar streak method; format: cell-based; settings: IAM1025
[2] = toxicity (survival of treated mice); format: in vivo
Protocol: All the mice treated with 100 mg/kg of 4-deoxy-aclacinomycin A, i.p., survived more than 7 days.

[3] = system: Staphylococcus aureus 209P IAM 1011; assay: in vitro minimum inhibitory concentration (MIC), agar streak method; format: cell-based
[4] = system: P388 leukemia; assay: antitumour activity against P388 leukemia in mice, survival time; format: in vivo, male CDF1 mice; settings: i.p., days 1, 5 and 9; for Mean survival: control 10.6 ± 0.6
Protocol: 4-Deoxy-aclacinomycin A obtained in the present invention was tested against P388 leukemia in mice. When male CDF1 mice (5 week old) were inoculated with 10^6 of P388 leukemia cells intraperitoneally and the antibiotic was administered through the same route on days 1, 5 and 9, the survival time of the treated mice was prolonged as shown in Table 6.

[5] = system: Klebsiella pheumonia IFO 3512; assay: in vitro minimum inhibitory concentration (MIC), agar streak method; format: cell-based; settings: IFO3512
[6] = system: Bacillus subtilis IAM 1027; assay: as above; format: cell-based; settings: IAM1027
[7] = system: Sarcina lutea IAM 1009; assay: as above; format: cell-based; settings: Micrococcus luteus, IAM1009
[8] = system: Pseudomonas aeruginosa IFO 12689; assay: as above; format: cell-based; settings: IFO12689
[9] = system: Staphylococcus epidermidis IFO 12993; assay: as above; format: cell-based; settings: IFO12993
[10] = system: Micrococcus flavus ATCC 10240; assay: as above; format: cell-based; settings: ATCC10240
[11] = system: Escherichia coli K-12 IAM 1264; assay: as above; format: cell-based; settings: IAM1264

CC[C@@]1(O)C[C@H](O[C@H]2C[C@H](N(C)C)[C@H](O[C@H]3C[C@H](O)[C@H](O[C@H]4CCC(=O)[C@H](C)O4)[C@H](C)O3)[C@H](C)O2)c2c(cc3c(c2O)C(=O)c2ccccc2C3=O)[C@H]1C(=O)OC [4-Deoxy-aclacinomycin A, 4-deoxy-aclacinomycin A]
MIC ([1]; Proteus vulgaris IAM 1025, read-out: MIC): > 100 µg/mL | survival of all the mice treated ([2]; 100 mg/kg, i.p.): more than 7 days | toxicity as compared with that of aclacinomycin A ([2]; statement in words): very low as compared with that of aclacinomycin A | MIC ([3]; Staphylococcus aureus 209P IAM 1011, read-out: MIC): 0.78 µg/mL (≈ 0.98 µM) | Increase in life span (%) ([4]; total dose 5.6 mg/Kg): 8% | Mean survival ([4]; total dose 5.6 mg/Kg): 11.5 ± 0.5 days | Increase in life span (%) ([4]; total dose 11.3 mg/Kg): 18% | Mean survival ([4]; total dose 11.3 mg/Kg): 12.5 ± 0.5 days | Increase in life span (%) ([4]; total dose 22.5 mg/Kg): 23% | Mean survival ([4]; total dose 22.5 mg/Kg): 13.0 ± 0.0 days | Increase in life span (%) ([4]; total dose 45 mg/Kg): 27% | Mean survival ([4]; total dose 45 mg/Kg): 13.5 ± 0.5 days | Increase in life span (%) ([4]; total dose 90 mg/Kg): 57% | Mean survival ([4]; total dose 90 mg/Kg): 16.5 ± 0.5 days | MIC ([5]; Klebsiella pheumonia IFO 3512, read-out: MIC): > 100 µg/mL | MIC ([6]; Bacillus subtilis IAM 1027, read-out: MIC): 0.39 µg/mL (≈ 0.49 µM) | MIC ([7]; Sarcina lutea IAM 1009, read-out: MIC): 0.19 µg/mL (≈ 0.239 µM) | MIC ([8]; Pseudomonas aeruginosa IFO 12689, read-out: MIC): > 100 µg/mL | MIC ([9]; Staphylococcus epidermidis IFO 12993, read-out: MIC): 0.78 µg/mL (≈ 0.98 µM) | MIC ([10]; Micrococcus flavus ATCC 10240, read-out: MIC): 0.19 µg/mL (≈ 0.239 µM) | MIC ([11]; Escherichia coli K-12 IAM 1264, read-out: MIC): > 100 µg/mL

CC[C@@]1(O)C[C@H](O[C@H]2C[C@H](N(C)C)[C@H](O[C@H]3C[C@@H]4OC5CC(=O)C(C)OC5O[C@@H]4[C@H](C)O3)[C@H](C)O2)c2c(cc3c(c2O)C(=O)c2ccccc2C3=O)[C@H]1C(=O)OC (stereo partly drawn) [4-Deoxy-aclacinomycin B, 4-deoxy-aclacinomycin B]
MIC ([1]; Proteus vulgaris): > 100 µg/mL | MIC ([3]; Staphylococcus aureus): 3.13 µg/mL (≈ 3.94 µM) | MIC ([5]; Klebsiella): > 100 µg/mL | MIC ([6]; Bacillus subtilis): 6.25 µg/mL (≈ 7.87 µM) | MIC [7]: 0.39 µg/mL (≈ 0.491 µM) | MIC ([8]; Pseudomonas aeruginosa): > 100 µg/mL | MIC ([9]; Staphylococcus epidermidis): 3.13 µg/mL (≈ 3.94 µM) | MIC ([10]; Micrococcus flavus): 0.39 µg/mL (≈ 0.491 µM) | MIC ([11]; Escherichia coli): > 100 µg/mL
